# Results: the supplement of paper PMC10307832
# Experiments:
# Experiment in all cases: relative viability (nuclei count vs DMSO), 5 days (fraction); higher = more cells survive
# Dinaciclib + Vorinostat = compound: CCc1cnn2c(NCc3ccc[n+]([O-])c3)cc(N3CCCC[C@H]3CCO)nc12 [Dinaciclib] + O=C(CCCCCCC(=O)Nc1ccccc1)NO [Vorinostat] (partner 1 µM)
# Procedure, shortened: (§1)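 Nuclei were stained with Hoechst during a one-step fixation (final 0.05% Triton X-100, 1% formaldehyde, 1 ug/ml Hoechst) carried out 5 days after dosing, then counted on 4× images. The cells, lung cancer lines in 1536-well plates, had been dosed by pin tool the day after seeding with one drug alone or a fixed anchor-drug dose plus five library-drug doses (not always all listed) in √10 steps. Relative viability is the nuclei count in treated wells divided by that in vehicle wells, and each value is the median of duplicate plates.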
# Dinaciclib + Tozasertib = compound: CCc1cnn2c(NCc3ccc[n+]([O-])c3)cc(N3CCCC[C@H]3CCO)nc12 [Dinaciclib] + Cc1cc(Nc2cc(N3CCN(C)CC3)nc(Sc3ccc(NC(=O)C4CC4)cc3)n2)n[nH]1 [Tozasertib] (partner 0.1 µM)
# Procedure, shortened: as §1
# Dinaciclib + Phenformin = compound: CCc1cnn2c(NCc3ccc[n+]([O-])c3)cc(N3CCCC[C@H]3CCO)nc12 [Dinaciclib] + N=C(N)NC(=N)NCCc1ccccc1 [Phenformin] (partner 250 µM)
# Procedure, shortened: as §1
# Dinaciclib + Pictilisib = compound: CCc1cnn2c(NCc3ccc[n+]([O-])c3)cc(N3CCCC[C@H]3CCO)nc12 [Dinaciclib] + CS(=O)(=O)N1CCN(Cc2cc3nc(-c4cccc5[nH]ncc45)nc(N4CCOCC4)c3s2)CC1 [Pictilisib] (partner 1 µM)
# Procedure, shortened: as §1
# Dinaciclib + Alpelisib = compound: CCc1cnn2c(NCc3ccc[n+]([O-])c3)cc(N3CCCC[C@H]3CCO)nc12 [Dinaciclib] + Cc1nc(NC(=O)N2CCC[C@H]2C(N)=O)sc1-c1ccnc(C(C)(C)C(F)(F)F)c1 [Alpelisib] (partner 2 µM)
# Procedure, shortened: as §1
Cell Line,relative viability (Dinaciclib + Vorinostat; first compound 0.009487 µM),relative viability (Dinaciclib + Vorinostat; first compound 0.03 µM),relative viability (Dinaciclib + Vorinostat; first compound 0.09487 µM),relative viability (Dinaciclib + Vorinostat; first compound 0.3 µM),relative viability (Dinaciclib + Tozasertib; first compound 0.009487 µM),relative viability (Dinaciclib + Tozasertib; first compound 0.03 µM),relative viability (Dinaciclib + Tozasertib; first compound 0.09487 µM),relative viability (Dinaciclib + Tozasertib; first compound 0.3 µM),relative viability (Dinaciclib + Phenformin; first compound 0.009487 µM),relative viability (Dinaciclib + Phenformin; first compound 0.03 µM),relative viability (Dinaciclib + Phenformin; first compound 0.09487 µM),relative viability (Dinaciclib + Phenformin; first compound 0.3 µM),relative viability (Dinaciclib + Pictilisib; first compound 0.009487 µM),relative viability (Dinaciclib + Pictilisib; first compound 0.03 µM),relative viability (Dinaciclib + Pictilisib; first compound 0.09487 µM),relative viability (Dinaciclib + Pictilisib; first compound 0.3 µM),relative viability (Dinaciclib + Alpelisib; first compound 0.009487 µM),relative viability (Dinaciclib + Alpelisib; first compound 0.03 µM),relative viability (Dinaciclib + Alpelisib; first compound 0.09487 µM),relative viability (Dinaciclib + Alpelisib; first compound 0.3 µM)
NCI-H322M,0.898,0.396,0.347,0.399,0.417,0.263,0.303,0.259,0.41,0.315,0.244,0.267,0.497,0.262,0.2,0.583,0.737,0.718,0.196,0.211
NCI-H358,0.339,0.0713,0.0813,0.0842,0.103,0.0813,0.0924,0.0857,0.268,0.078,0.0729,0.0856,0.272,0.185,0.174,0.176,0.61,0.14,0.161,0.183
NCI-H441,1.07,0.34,0.174,0.131,0.603,0.223,0.23,0.175,0.688,0.184,0.164,0.136,0.589,0.126,0.111,0.115,0.594,0.128,0.147,0.15
NCI-H460,0.57,0.0214,0.0191,0.0236,0.489,0.0458,0.015,0.0209,0.296,0.0189,0.0192,0.0198,0.264,0.0398,0.0429,0.0452,0.383,0.0074,0.0122,0.0084
NCI-H520,0.531,0.153,0.15,0.138,0.473,0.201,0.181,0.208,0.476,0.203,0.167,0.166,0.25,0.169,0.0942,0.165,0.601,0.148,0.141,0.147
NCI-H596,0.629,0.613,0.252,0.158,0.853,0.456,0.176,0.164,0.875,0.692,0.438,0.216,0.418,0.245,0.157,0.106,0.517,0.426,0.105,0.154
NCI-H647,0.494,0.079,0.0693,0.0788,0.21,0.0983,0.0486,0.0487,0.302,0.0795,0.059,0.0723,0.493,0.0803,0.0566,0.0473,0.585,0.055,0.0588,0.0651
NCI-H650,0.336,0.146,0.129,0.157,0.493,0.183,0.154,0.153,0.407,0.201,0.159,0.154,0.872,0.218,0.135,0.134,1.21,0.192,0.165,0.176
NCI-H661,0.804,0.235,0.211,0.211,0.339,0.183,0.199,0.18,0.192,0.209,0.185,0.185,0.346,0.181,0.175,0.177,0.346,0.147,0.176,0.152
NCI-H727,1.33,1.15,0.362,0.312,0.538,0.287,0.276,0.282,0.648,0.284,0.256,0.21,0.297,0.173,0.196,0.134,0.488,0.159,0.163,0.164
NCI-H838,0.496,0.146,0.145,0.15,0.292,0.164,0.0965,0.0959,0.247,0.117,0.0955,0.104,0.28,0.117,0.111,0.101,0.916,0.149,0.11,0.123
NCI-H1355,0.634,0.507,0.262,0.136,0.677,0.292,0.161,0.181,0.502,0.319,0.183,0.184,0.476,0.146,0.0972,0.133,0.933,0.233,0.141,0.159
NCI-H1395,0.537,0.269,0.273,0.224,0.782,0.301,0.24,0.239,0.453,0.306,0.301,0.248,0.483,0.248,0.269,0.248,0.903,0.304,0.312,0.303
NCI-H1437,0.87,0.183,0.181,0.177,0.356,0.165,0.141,0.131,0.279,0.187,0.17,0.13,0.378,0.0843,0.0843,0.0936,0.87,0.182,0.0937,0.094
NCI-H1651,0.616,0.534,0.358,0.0861,0.633,0.58,0.0798,0.0626,0.26,0.219,0.0746,0.0547,0.507,0.115,0.0517,0.0439,0.865,0.613,0.108,0.0602
NCI-H1666,1.28,0.67,0.535,0.625,0.586,0.284,0.275,0.276,0.461,0.34,0.4,0.347,0.4,0.19,0.21,0.226,0.716,0.165,0.228,0.243

Cell Line,relative viability (Dinaciclib + Vorinostat; first compound 0.009487 µM),relative viability (Dinaciclib + Vorinostat; first compound 0.03 µM),relative viability (Dinaciclib + Vorinostat; first compound 0.09487 µM),relative viability (Dinaciclib + Vorinostat; first compound 0.3 µM),relative viability (Dinaciclib + Tozasertib; first compound 0.009487 µM),relative viability (Dinaciclib + Tozasertib; first compound 0.03 µM),relative viability (Dinaciclib + Tozasertib; first compound 0.09487 µM),relative viability (Dinaciclib + Tozasertib; first compound 0.3 µM),relative viability (Dinaciclib + Phenformin; first compound 0.009487 µM),relative viability (Dinaciclib + Phenformin; first compound 0.03 µM),relative viability (Dinaciclib + Phenformin; first compound 0.09487 µM),relative viability (Dinaciclib + Phenformin; first compound 0.3 µM),relative viability (Dinaciclib + Pictilisib; first compound 0.009487 µM),relative viability (Dinaciclib + Pictilisib; first compound 0.03 µM),relative viability (Dinaciclib + Pictilisib; first compound 0.09487 µM),relative viability (Dinaciclib + Pictilisib; first compound 0.3 µM),relative viability (Dinaciclib + Alpelisib; first compound 0.009487 µM),relative viability (Dinaciclib + Alpelisib; first compound 0.03 µM),relative viability (Dinaciclib + Alpelisib; first compound 0.09487 µM),relative viability (Dinaciclib + Alpelisib; first compound 0.3 µM)
NCI-H1734,0.571,0.144,0.142,0.126,0.208,0.13,0.133,0.111,0.318,0.14,0.113,0.115,0.396,0.188,0.124,0.128,0.607,0.271,0.127,0.138
NCI-H1755,0.739,0.452,0.227,0.242,0.53,0.401,0.2,0.234,0.545,0.405,0.224,0.218,0.387,0.132,0.127,0.143,0.852,0.241,0.158,0.169
NCI-H1793,0.599,0.25,0.107,0.158,0.284,0.13,0.131,0.103,0.374,0.235,0.115,0.119,0.288,0.177,0.145,0.2,0.468,0.188,0.163,0.15
NCI-H1915,0.534,0.291,0.116,0.104,0.303,0.149,0.13,0.115,0.295,0.149,0.13,0.133,0.658,0.158,0.121,0.102,0.866,0.202,0.108,0.108
NCI-H1944,0.522,0.172,0.11,0.133,0.233,0.134,0.132,0.127,0.184,0.117,0.121,0.13,0.4,0.172,0.168,0.177,0.904,0.221,0.152,0.166
NCI-H1975,0.677,0.39,0.144,0.15,0.927,0.416,0.082,0.071,0.364,0.153,0.113,0.1,0.166,0.0983,0.102,0.102,0.473,0.118,0.112,0.147
NCI-H1993,0.651,0.281,0.42,0.308,0.505,0.623,0.595,0.565,0.466,0.581,0.594,0.565,0.694,0.834,–,0.588,0.671,0.683,–,0.642
NCI-H2009,0.806,0.202,0.0818,0.0781,0.599,0.231,0.112,0.106,0.463,0.159,0.11,0.105,0.661,0.0836,0.0705,0.0666,0.923,0.151,0.102,0.0919
NCI-H2023,0.678,0.08,0.0556,0.0518,0.446,0.0768,0.0628,0.0577,0.384,0.0797,0.0696,0.0629,0.26,0.0718,0.0607,0.0559,0.538,0.25,0.064,0.0614
NCI-H2085,0.907,0.503,0.221,0.214,0.802,0.373,0.3,0.308,0.72,0.304,0.232,0.202,0.424,0.281,0.221,0.215,0.976,0.346,0.228,0.258
NCI-H2087,0.753,0.114,0.12,0.0878,0.222,0.0979,0.0821,0.0868,0.588,0.112,0.118,0.107,0.643,0.143,0.165,0.151,0.843,0.144,0.121,0.116
NCI-H2126,0.817,0.345,0.176,0.194,0.799,0.218,0.222,0.19,0.443,0.258,0.221,0.21,0.474,0.246,0.198,0.199,0.732,0.399,0.209,0.196
NCI-H2170,0.736,0.132,0.116,0.116,0.721,0.171,0.144,0.143,0.415,0.133,0.119,0.152,0.27,0.151,0.163,0.196,0.646,0.166,0.162,0.198
NCI-H2228,0.749,0.213,0.131,0.136,0.333,0.137,0.0995,0.0912,0.256,0.11,0.0988,0.103,0.484,0.0919,0.0936,0.1,0.548,0.122,0.108,0.119
NCI-H2347,0.515,0.304,0.252,0.228,0.425,0.17,0.138,0.174,0.468,0.131,0.193,0.209,0.455,0.292,0.327,0.179,0.986,0.324,0.274,0.222
